# From ChEMBL document CHEMBL1201862, “PubChem BioAssay data set” (2004)
#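 Assay format: 96-well plates, 48-hour exposure. GI50 = concentration required for 50% inhibition of growth.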 Activity calls are given as the source filed them. Rule as the data show it: active = GI50 up to about 1.1 µM and inactive = higher.
# Legend:
# Assay in all cases: growth of human tumour cells (NCI), 48 h
# UO-31 = system: UO-31
# NCI-H226 = system: NCI-H226
# HOP-62 = system: HOP-62
# SF-268 = system: SF-268
# RPMI-8226 = system: RPMI-8226
# A498 = system: A498
# HCT-116 = system: HCT-116
# BT-549 = system: BT-549
# UACC-62 = system: UACC-62
# SF-295 = system: SF-295
# U-251 = system: U-251
# SK-OV-3 = system: SK-OV-3
# PC-3 = system: PC-3
# SR = system: SR
# MDA-MB-231 = system: MDA-MB-231
# OVCAR-8 = system: OVCAR-8
# LOX IMVI = system: LOX IMVI
# ACHN = system: ACHN
# HCC 2998 = system: HCC 2998
SMILES,GI50 (UO-31),GI50 (NCI-H226),GI50 (HOP-62),GI50 (SF-268),GI50 (RPMI-8226),GI50 (A498),GI50 (HCT-116),GI50 (BT-549),GI50 (UACC-62),GI50 (SF-295),GI50 (U-251),GI50 (SK-OV-3),GI50 (PC-3),GI50 (SR),GI50 (MDA-MB-231),GI50 (OVCAR-8),GI50 (LOX IMVI),GI50 (ACHN),GI50 (HCC 2998)
O=C1c2cccnc2S(=O)(=O)N1c1ccc(Br)cc1,> 100 µM (inactive),> 100 µM (inactive),> 100 µM (inactive),> 100 µM (inactive),91.6 µM (inactive),> 100 µM (inactive),> 100 µM (inactive),79.1 µM (inactive),> 100 µM (inactive),> 100 µM (inactive),> 100 µM (inactive),> 100 µM (inactive),72.4 µM (inactive),41.3 µM (inactive),> 100 µM (inactive),> 100 µM (inactive),> 100 µM (inactive),–,–
CN(C)c1ccc2c(c1)oc(=O)c1ccccc12,–,15.3 µM (inactive),29.2 µM (inactive),10.4 µM (inactive),3.59 µM (inactive),15.8 µM (inactive),12.3 µM (inactive),3.44 µM (inactive),13.6 µM (inactive),19.1 µM (inactive),11.2 µM (inactive),–,15.7 µM (inactive),3.2 µM (inactive),16.5 µM (inactive),11.1 µM (inactive),6.14 µM (inactive),18.5 µM (inactive),14.9 µM (inactive)
O=c1oc2ccccc2cc1-c1cn2c(n1)sc1ccccc12,> 100 µM (inactive),> 100 µM (inactive),> 100 µM (inactive),52.6 µM (inactive),> 100 µM (inactive),–,75.5 µM (inactive),> 100 µM (inactive),> 100 µM (inactive),> 100 µM (inactive),83 µM (inactive),> 100 µM (inactive),> 100 µM (inactive),> 100 µM (inactive),> 100 µM (inactive),83.9 µM (inactive),> 100 µM (inactive),> 100 µM (inactive),> 100 µM (inactive)
S=C(N1CCN(c2ccc(Cl)c(Cl)c2)CC1)N1CCN(c2ccc(Cl)c(Cl)c2)CC1,13.1 µM (inactive),11.1 µM (inactive),12.5 µM (inactive),14.4 µM (inactive),18 µM (inactive),–,7.19 µM (inactive),16.2 µM (inactive),15.5 µM (inactive),9.25 µM (inactive),14.7 µM (inactive),12.5 µM (inactive),12.7 µM (inactive),1.36 µM (inactive),9.08 µM (inactive),14.8 µM (inactive),–,14.4 µM (inactive),13.7 µM (inactive)
O=c1[nH]nc(Cc2ccc(Cl)cc2)n1/N=C/c1ccco1,> 100 µM (inactive),84.5 µM (inactive),48.6 µM (inactive),38.3 µM (inactive),> 100 µM (inactive),> 100 µM (inactive),93.1 µM (inactive),40.6 µM (inactive),74 µM (inactive),46.6 µM (inactive),39.7 µM (inactive),80.2 µM (inactive),> 100 µM (inactive),> 100 µM (inactive),46.1 µM (inactive),66.5 µM (inactive),–,> 100 µM (inactive),> 100 µM (inactive)
Cc1ccc(-n2nnc3c(NNc4ccccc4)n[nH]c(=O)c32)cc1,–,70 µM (inactive),66.2 µM (inactive),> 10 µM (inactive),> 100 µM (inactive),–,82.8 µM (inactive),73.3 µM (inactive),–,55.2 µM (inactive),52.1 µM (inactive),–,78.2 µM (inactive),> 100 µM (inactive),96.8 µM (inactive),49.8 µM (inactive),> 100 µM (inactive),> 100 µM (inactive),> 100 µM (inactive)
CCCNc1[nH]c(C(C)=O)c(N)c1C(=S)Nc1ccccc1,0.782 µM (active),21.7 µM (inactive),42 µM (inactive),23.3 µM (inactive),–,27.4 µM (inactive),34.8 µM (inactive),24.2 µM (inactive),17.9 µM (inactive),43.3 µM (inactive),31.7 µM (inactive),45.5 µM (inactive),> 100 µM (inactive),17.2 µM (inactive),36.6 µM (inactive),27.7 µM (inactive),23.3 µM (inactive),40.8 µM (inactive),> 100 µM (inactive)
C#C/C=C\CCCCCCCCCCCCCC/C=C\CCCCC#CC(O)C#CCCCC/C=C\CCCCCC/C=C/C(O)C#C (stereo unspecified),15.6 µM (inactive),32.1 µM (inactive),> 62.8 µM (inactive),17.2 µM (inactive),–,30.1 µM (inactive),4.67 µM (inactive),> 71.9 µM (inactive),11.8 µM (inactive),17.7 µM (inactive),31.9 µM (inactive),> 75 µM (inactive),19.1 µM (inactive),14.1 µM (inactive),34.2 µM (inactive),23.3 µM (inactive),2.55 µM (inactive),20.8 µM (inactive),13.1 µM (inactive)
c1ccc2c(CC3NCCN3)cccc2c1,–,> 100 µM (inactive),> 100 µM (inactive),> 100 µM (inactive),> 100 µM (inactive),> 100 µM (inactive),> 100 µM (inactive),> 100 µM (inactive),> 100 µM (inactive),> 100 µM (inactive),> 100 µM (inactive),> 100 µM (inactive),> 100 µM (inactive),> 100 µM (inactive),> 100 µM (inactive),> 100 µM (inactive),> 100 µM (inactive),> 100 µM (inactive),–
Cc1ccc2c(n1)NC(=O)C(Cc1ccccc1)(N=[N+]=[N-])C2=O (stereo unspecified),> 100 µM (inactive),> 100 µM (inactive),> 100 µM (inactive),> 100 µM (inactive),–,> 100 µM (inactive),> 100 µM (inactive),> 100 µM (inactive),> 100 µM (inactive),> 100 µM (inactive),> 100 µM (inactive),> 100 µM (inactive),> 100 µM (inactive),> 100 µM (inactive),> 100 µM (inactive),> 100 µM (inactive),–,> 100 µM (inactive),> 100 µM (inactive)
CCSC12CC3c4cccc5c4C(CN5C(=O)c4ccccc4)CC3(O1)N(C)C2=O (stereo unspecified),47.3 µM (inactive),39.6 µM (inactive),–,42.7 µM (inactive),–,32.1 µM (inactive),30.1 µM (inactive),26.1 µM (inactive),22.5 µM (inactive),45.6 µM (inactive),38.5 µM (inactive),> 100 µM (inactive),22.9 µM (inactive),28.7 µM (inactive),27.9 µM (inactive),31.5 µM (inactive),31.3 µM (inactive),33.6 µM (inactive),–
CCOC(=O)/C(=N\Nc1ccc(-n2c(C)nc3ccc(Br)cc3c2=O)cc1)C(C)=O,29.8 µM (inactive),77.8 µM (inactive),42.8 µM (inactive),67.6 µM (inactive),16.4 µM (inactive),52.7 µM (inactive),43.6 µM (inactive),47 µM (inactive),46.9 µM (inactive),48 µM (inactive),59.6 µM (inactive),> 100 µM (inactive),44.6 µM (inactive),22.3 µM (inactive),31.9 µM (inactive),55.2 µM (inactive),> 100 µM (inactive),93.1 µM (inactive),–
NC(=O)c1cc2ccccc2c(/N=N/c2ccccc2)c1O,> 100 µM (inactive),> 100 µM (inactive),22.6 µM (inactive),52.7 µM (inactive),59.6 µM (inactive),> 100 µM (inactive),14.1 µM (inactive),> 100 µM (inactive),> 100 µM (inactive),> 100 µM (inactive),9.59 µM (inactive),76.6 µM (inactive),> 100 µM (inactive),> 100 µM (inactive),35.6 µM (inactive),29.9 µM (inactive),> 100 µM (inactive),–,–
CC(=O)O[C@H]1CCc2c(cc(N)c3c2C(=O)C[C@]2(C)C([C@H](C)CCCC(C)C)CCC32C)C1(C)C (stereo partly specified),> 100 µM (inactive),> 100 µM (inactive),> 100 µM (inactive),> 100 µM (inactive),> 100 µM (inactive),73.6 µM (inactive),89.7 µM (inactive),> 100 µM (inactive),> 100 µM (inactive),> 100 µM (inactive),> 100 µM (inactive),> 100 µM (inactive),72.8 µM (inactive),33.9 µM (inactive),> 100 µM (inactive),33.3 µM (inactive),–,> 100 µM (inactive),> 100 µM (inactive)
CC1CC[C@]2(C(=O)O)CCC3(C)C(=C2[C@H]1C)C=CC1[C@@]2(C)CC[C@H](O)C(C)(C)C2CC[C@]13C (stereo partly specified),–,66.1 µM (inactive),21.1 µM (inactive),27.7 µM (inactive),12.2 µM (inactive),–,17.6 µM (inactive),33.7 µM (inactive),42.2 µM (inactive),19.9 µM (inactive),29 µM (inactive),16.6 µM (inactive),21.1 µM (inactive),12.4 µM (inactive),21.3 µM (inactive),27.7 µM (inactive),33.1 µM (inactive),16.4 µM (inactive),29.7 µM (inactive)
CN(C)C(=O)Oc1ccc[n+](C)c1 [PYRIDOSTIGMINE BROMIDE],> 100 µM (inactive),> 100 µM (inactive),> 100 µM (inactive),> 100 µM (inactive),> 100 µM (inactive),> 100 µM (inactive),> 100 µM (inactive),> 100 µM (inactive),> 100 µM (inactive),> 100 µM (inactive),> 100 µM (inactive),–,> 100 µM (inactive),8.28 µM (inactive),> 100 µM (inactive),> 100 µM (inactive),> 100 µM (inactive),> 100 µM (inactive),> 100 µM (inactive)
